Measurements from paper PMC10530362, “Light-Sensitive Open Channel Block of Ionotropic Glutamate Receptors by Quaternary Ammonium Azobenzene Derivatives” (International Journal of Molecular Sciences, 2023).

How the values were obtained:
[1] = tested on: T1, NMDA receptors (native, hippocampal CA1 pyramidal neurons); assay: whole-cell patch clamp, NMDA-evoked steady-state current; type: cell-based, Rattus norvegicus; details: dark (trans), -70 mV, 100 µM NMDA + 10 µM glycine, pH 7.4, 22-24 °C; voltage-dependent foot-in-the-door pore block; unit inferred, µM from context
T1 construct: gene Grin1; native heteromeric receptor in isolated rat CA1 pyramidal neurons

[2] = tested on: T2, calcium-permeable AMPA receptors (native, giant cholinergic interneurons of the striatum); assay: whole-cell patch clamp, kainate-evoked current; type: cell-based, Rattus norvegicus; details: dark (trans), -70 mV, 100 µM kainate, pH 7.4, 22-24 °C; open channel pore block plus minor voltage-independent site; unit inferred, µM from context
T2 construct: gene Gria1; native GluA2(R)-lacking receptors in isolated rat striatal giant interneurons

Structure (SMILES) | IC50 [1] [µM] | IC50 [2] [µM]
C=CC(=O)Nc1ccc(/N=N/c2ccc(NC(=O)C[N+](CC)(CC)CC)cc2)cc1 [AAQ] | 19 ± 1.4 | 28.5 ± 1.1
CC[N+](CC)(CC)CC(=O)Nc1ccc(N=Nc2ccc(NC(=O)C[N+](CC)(CC)CC)cc2)cc1 [QAQ] | 18.6 ± 1 | 17 ± 2
